Where two headings read alike, the source gives them in different places.
Assays:
[1] = Solubility assessment in water; format: physicochemical; settings: for solubility: thermodynamic from solid
Method: Water was added slowly to 4.7 mg of compound 5 until 4.7 ml of water was added at which point the phosphate fully dissolved. The pH of the solution was estimated using litmus paper and estimated to be <3. Without a counterion, the molecular weight of the phosphate is 418 m. Therefore, at 1 mg/ml, the concentration is 2.4 mM.
For comparison, compound 3 is soluble to 0.4 μg/ml (Han et al FASEB J. 2017 31(2):491-504), which at a molecular weight of 308 is 1.3 μM.
Compound 5 was suspended in water (at weight to give a final concentration of 10 mM) and then 2 eq NaHCO3 was added.

[2] = biological target: T1, 15-lipoxygenase in primary peripheral blood eosinophils (Homo sapiens, UniProt P16050); test: Inhibition of 15-lipoxygenase in human primary eosinophils, 15(S)-HETE ELISA; settings: 3 μM arachidonic acid
T1 sequence (P16050 1-662): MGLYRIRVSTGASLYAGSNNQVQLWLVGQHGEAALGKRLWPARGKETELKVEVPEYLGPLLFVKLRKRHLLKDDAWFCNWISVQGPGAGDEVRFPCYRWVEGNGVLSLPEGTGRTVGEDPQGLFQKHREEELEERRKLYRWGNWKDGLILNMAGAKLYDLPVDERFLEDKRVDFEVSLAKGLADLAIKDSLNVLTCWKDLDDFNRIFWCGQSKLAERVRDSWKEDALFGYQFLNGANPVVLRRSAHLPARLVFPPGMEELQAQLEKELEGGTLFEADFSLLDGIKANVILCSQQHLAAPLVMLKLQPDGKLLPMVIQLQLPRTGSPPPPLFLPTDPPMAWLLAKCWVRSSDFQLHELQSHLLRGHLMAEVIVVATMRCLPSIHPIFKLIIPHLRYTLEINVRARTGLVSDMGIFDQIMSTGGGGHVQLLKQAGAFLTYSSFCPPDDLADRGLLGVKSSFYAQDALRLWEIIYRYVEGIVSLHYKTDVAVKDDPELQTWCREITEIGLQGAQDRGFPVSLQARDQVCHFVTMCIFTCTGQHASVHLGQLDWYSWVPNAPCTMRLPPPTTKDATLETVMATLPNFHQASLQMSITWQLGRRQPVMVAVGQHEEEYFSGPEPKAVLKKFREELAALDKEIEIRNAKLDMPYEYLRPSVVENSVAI
Method: Primary peripheral blood eosinophils from 2 separate donors (StemExpress) were thawed from frozen and allowed to recover in growth media for 4 hours at 37° C. Cells were washed with Hank's Balanced Salt Solution, then aliquoted into 96 well round bottomed plate at 1*10^5 cells/well, 200 μL/well. […] Arachidonic acid was added to final concentration of 3 μM and experiment started. At 1 hour post-treatment the supernatant was collected and 15(S)-HETE was quantified by ELISA (Cayman Chemical) according to manufacturer's recommended protocol. Comparisons were made between the cells treated with the test compounds and cells treated with vehicle only.

[3] = Levels of compound 3 and compound 5 in rabbit nasal lavage and serum after nasal administration of compound 5; format: in vivo; settings: rabbits
Method: Six (6) female NZW rabbits were employed in this study. Rabbits were obtained from Covance (Denver Pa.). Rabbits were between approximately 10 and 12 months of age at the time of study start. At time point 0, all animals received 50 μL of solution containing rabbit IL4 (RND Systems/Biotechne) and human IL13 (PreproTech) at a concentration of 0.25 mg/mL each in 0.5×PBS containing 12.5 mg/mL BSA per nostril. This was administered intranasally via a venous catheter attached to a micropipette. The animal was positioned in a supine manner and the venous catheter inserted into the nostril. The volume was introduced into the nasal cavity and the same procedure was repeated with the other nostril.
At the 2, 4, and 6 hour time points, animals in Group 1 (n=3) received 0.2 mL of vehicle (0.9% saline) per nostril and the animals in Group 2 (n=3) received 0.2 mL of compound 5 (10 mM) in vehicle per nostril. The dosing of vehicle and compound 5 proceed as follows: The animal was positioned in a supine manner in a restraint bag and a mucosal atomization device (MAD) attached to the pre-filled tuberculin syringe was inserted into the nostril and introduced into the nasal cavity. The same procedure was repeated with the other nostril.
At the 8 hour time point, all the nostrils of all animals were lavaged with 1 mL of 0.9% saline per nostril and the resulting fluid collected. Intranasal lavages were performed as follows: The animals were held sternally in a restraint bag with the head over the edge of the table and the rear of the animal elevated higher than the head. A flexible venous catheter was inserted in the nostril until resistance was felt. The 1 mL of saline was introduced through the catheter into the nasal cavity. The nasal lavage returned from the nostril was collected via a funnel into a conical tube and the approximate volume recorded. This procedure was repeated for the other nostril. The lavage was stored at approximately −70° C. until analysis. Following (<10 minutes) the 8 hour time point lavage, blood was collected from all animals, processed to serum, and frozen at approximately −70° C. until analysis.
Nasal lavage and serum samples were analyzed for the levels of compound 3 and compound 5. Frozen tissue samples were weighed (20-120 mg) and placed into 2 mL CK14 homogenizing tubes (Bertin) and 500 μL of methanol containing 1 mM butylated hydroxy toluene (BHT) and 1 mM tris(2-carboxyethyl)phosphine (TCEP) was added. The tubes were placed in a Precellys 24 tissue homogenizer (Bertin) and run at 6000 rpm six times for 20 seconds with a 10 second pause between cycles. The tubes containing the homogenized tissue were then placed in a microfuge and centrifuged for 5′ at 14,000 rpm to pellet any insoluble material. Compound 3 was quantified using LC-MS/MS (QTrap5500, Applied Biosystems). Q1/Q3 Masses: 306.00/135.00 using a deschloro derivative of compound 3 (lacking chlorine at 4 position of pyrazole ring) as an internal standard. The Q1/Q3 Masses are 272.00/101.00 Da for the internal standard. Compound 3 was extracted using liquid/liquid extraction with methanol as a diluent. […] Compound 5 was quantified using LC-MS/MS (QTrap5500, Applied Biosystems). […] Compound 5 was detected in the lavage samples from Group 2 animals (rabbit 1, rabbit 2, rabbit 3) and ranged in average concentration from 0.016 uM-0.35 uM. […]

[4] = biological target: T1, 15-lipoxygenase in primary peripheral blood eosinophils; test: Inhibition of 15-lipoxygenase in human primary eosinophils with short-term exposure, 15-HETE LC-MS/MS; settings: 10 μM for 30 minutes, 3 μM arachidonic acid, 5 minutes
Method: Two independent experiments were performed in which primary peripheral blood eosinophils (StemExpress) were thawed from frozen and allowed to recover in growth media for 4 hours at 37° C. […] Arachidonic acid was added to final concentration of 3 μM and experiment started. At 5 minutes post-treatment, the entire reaction was quenched with an equal volume of extraction buffer (methanol, 60 mM ascorbic acid, 0.1% acetic acid) and 15-HETE quantified. Briefly, 15-HETE was quantified using LC-MS/MS (QTrap5500, Applied Biosystems). […] Deuterated 15-HETE (Cayman Chemical) was used as the internal standard. […] Oxidized fatty acids were extracted using liquid/liquid extraction with acetonitrile as a diluent. Reverse chromatography was performed using a Unison UK-C18 column (Imtakt, 50×3 mm i.d., 3 μm, PN: UK-032) using a water/acetonitrile gradient containing 0.05% ammonium hydroxide and 0.1% formic acid.

For `O=C(Nc1ccc(F)cc1Cl)c1nn(COP(=O)(O)O)c(Cl)c1Cl` [compound 5, (4,5-dichloro-3-((2-chloro-4-fluorophenyl)carbamoyl)-1H-pyrazol-1-yl)methyl dihydrogen phosphate], the “pH of the solution” value ([1]; 1 mg/ml in water, estimated using litmus paper) was under 3, the “increase in water solubility above compound 3” value ([1]; disodium salt) was 7,200 fold and the “further increase in solubility as a sodium salt” value ([1]; disodium salt versus free phosphoric acid) was 4 fold. For the same compound, the “increase in water solubility over compound 3” value ([1]; free phosphoric acid) was about 1800 fold, the solubility ([1]; free phosphoric acid, 4.7 mg fully dissolved in 4.7 ml water, read-out: solubility in water) was 1000 µg/mL and the solubility ([1]; water with 2 eq NaHCO3, aqueous buffer, disodium salt, 2 eq NaHCO3 added, read-out: concentration in water giving a clear solution) was at least 10000 µM. For the same compound, the solubility ([1]; water, free phosphoric acid, at 1 mg/ml, molecular weight 418, read-out: solubility in water, concentration) was 2400 µM, the “decrease in 15-HETE production compared to vehicle or ALP alone (FIG. 2)” value ([2]; 10 μM pretreated 15 minutes with 0.2 U alkaline phosphatase (ALP), 1 hour) was “approximately 60%” and the “decrease in 15-HETE production compared to vehicle or ALP alone (FIG. 2)” value ([2]; 10 μM, 1 hour post-treatment) was “approximately 40%”. The concentration at 8 h ([3]; female, NZW, rabbit, nasal lavage, other: intranasal (mucosal atomization device), 0.2 mL of 10 mM compound 5 per nostril at 2, 4, 6 hours, lavage at 8 hours, range over 3 rabbits, read-out: average concentration of compound 5 in nasal lavage (FIG. 8)) was 16 to 350 nM, the “level in serum samples” value ([3]; intranasal compound 5 10 mM, blood after the 8 hour lavage) was “no quantifiable” and the “conversion of compound 5 to compound 3 in nasal lavage (FIG. 8)” value ([3]; intranasal compound 5 10 mM, lavage at 8 hours) was “majority of compound 5 was converted to compound 3”. For the same compound, the “less 15-HETE relative to cells treated with vehicle only (FIG. 3)” value ([4]; Experiment 1) was “approximately 79%” and the “less 15-HETE relative to cells treated with vehicle only (FIG. 3)” value ([4]; Experiment 2) was 63%.
